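GI50 is the concentration that inhibits growth by half. Definition used: TGI = concentration required for complete inhibition of growth.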
How the values were obtained:
Assay in all cases: NCI anticancer screen, dose series, 384-well format
[1] = tested on: 786-0 renal
[2] = tested on: A498 renal
[3] = tested on: A549 NSCLC
[4] = tested on: ACHN renal
[5] = tested on: BT-549 breast
[6] = tested on: CAKI-1 renal
[7] = tested on: CCRF-CEM leukemia
[8] = tested on: COLO 205 colon
[9] = tested on: DU-145 prostate
[10] = tested on: EKVX NSCLC
[11] = tested on: HCC-2998 colon
[12] = tested on: HCT-116 colon
[13] = tested on: HCT-15 colon
[14] = tested on: HL-60(TB) leukemia
[15] = tested on: HOP-62 NSCLC
[16] = tested on: HOP-92 NSCLC
[17] = tested on: HS 578T breast
[18] = tested on: HT29 colon
[19] = tested on: IGROV1 ovarian
[20] = tested on: K-562 leukemia
[21] = tested on: KM12 colon
[22] = tested on: LOX IMVI melanoma
[23] = tested on: M14 melanoma
[24] = tested on: MALME-3M melanoma
[25] = tested on: MCF7 breast
[26] = tested on: MDA-MB-435 melanoma
[27] = tested on: MDA-MB-468 breast
[28] = tested on: MOLT-4 leukemia
[29] = tested on: NCI-H226 lung
[30] = tested on: NCI-H23 lung
[31] = tested on: NCI-H322M lung
[32] = tested on: NCI-H460 NSCLC
[33] = tested on: NCI-H522 lung
[34] = tested on: NCI/ADR-RES ovarian
[35] = tested on: OVCAR-3 ovarian
[36] = tested on: OVCAR-4 ovarian
[37] = tested on: OVCAR-8 ovarian
[38] = tested on: PC-3 prostate
[39] = tested on: RPMI-8226 leukemia
[40] = tested on: RXF 393 renal
[41] = tested on: SF-268 CNS
[42] = tested on: SF-295 CNS
[43] = tested on: SF-539 CNS
[44] = tested on: SK-MEL-2 melanoma
[45] = tested on: SK-MEL-28 melanoma
[46] = tested on: SK-MEL-5 melanoma
[47] = tested on: SK-OV-3 ovarian
[48] = tested on: SN12C renal
[49] = tested on: SNB-19 CNS
[50] = tested on: SNB-75 CNS
[51] = tested on: SW-620 colon
[52] = tested on: TK-10 renal
[53] = tested on: U251 glioblastoma
[54] = tested on: UACC-257 melanoma
[55] = tested on: UACC-62 melanoma

C=C(c1ccc(N(C)C)cc1)c1ccc(N(C)C)cc1
GI50 [1]: 2.51 µM
TGI [1]: 8.96 µM
GI50 [2]: 2.1 µM
TGI [2]: 7.73 µM
GI50 [3]: 4.11 µM
TGI [3]: 28.9 µM
GI50 [4]: 4.16 µM
TGI [4]: > 100 µM
GI50 [5]: 1.49 µM
TGI [5]: 4.15 µM
GI50 [6]: 2.57 µM
TGI [6]: 22.1 µM
GI50 [7]: 1.35 µM
TGI [7]: 2.68 µM
GI50 [8]: 2.78 µM
TGI [8]: 7.77 µM
GI50 [9]: 2.66 µM
TGI [9]: 8.38 µM
GI50 [10]: 3.38 µM
TGI [10]: 15.3 µM
GI50 [11]: 1.12 µM
TGI [11]: 4.84 µM
GI50 [12]: 2.45 µM
TGI [12]: 13.1 µM
GI50 [13]: 0.373 µM
TGI [13]: 10.3 µM
GI50 [14]: 0.382 µM
TGI [14]: 1.87 µM
GI50 [15]: 2.2 µM
TGI [15]: 7.98 µM
GI50 [16]: 2.45 µM
TGI [16]: 8.34 µM
GI50 [17]: 1.69 µM
TGI [17]: 3.53 µM
GI50 [18]: 1.87 µM
TGI [18]: 4.79 µM
GI50 [19]: 2.36 µM
TGI [19]: 9.03 µM
GI50 [20]: 1.91 µM
TGI [20]: 5.35 µM
GI50 [21]: 1.94 µM
TGI [21]: 55.4 µM
GI50 [22]: 1.91 µM
TGI [22]: 21.1 µM
GI50 [23]: 1.39 µM
TGI [23]: 3.16 µM
GI50 [24]: 1.65 µM
TGI [24]: 6.03 µM
GI50 [25]: 2.16 µM
TGI [25]: 8.52 µM
GI50 [26]: 0.28 µM
TGI [26]: 1.06 µM
GI50 [27]: 0.142 µM
TGI [27]: 0.822 µM
GI50 [28]: 0.301 µM
TGI [28]: 1.22 µM
GI50 [29]: 4.29 µM
TGI [29]: 26.7 µM
GI50 [30]: 1.75 µM
TGI [30]: 4.13 µM
GI50 [31]: 5.48 µM
TGI [31]: 29.1 µM
GI50 [32]: 2.28 µM
TGI [32]: 5.15 µM
GI50 [33]: 0.628 µM
TGI [33]: 2.17 µM
GI50 [34]: 1.43 µM
TGI [34]: 3.12 µM
GI50 [35]: 1.41 µM
TGI [35]: 3.1 µM
GI50 [36]: 2.09 µM
TGI [36]: 9.56 µM
GI50 [37]: 2.39 µM
TGI [37]: 5.17 µM
GI50 [38]: 3.1 µM
TGI [38]: 16.1 µM
GI50 [39]: 1.51 µM
TGI [39]: 2.89 µM
GI50 [40]: 1.33 µM
TGI [40]: 3.48 µM
GI50 [41]: 3.27 µM
TGI [41]: 15 µM
GI50 [42]: 2.17 µM
TGI [42]: 5.44 µM
GI50 [43]: 1.79 µM
TGI [43]: 4.12 µM
GI50 [44]: 0.48 µM
TGI [44]: 1.9 µM
GI50 [45]: 2.59 µM
TGI [45]: 7.79 µM
GI50 [46]: 1.36 µM
TGI [46]: 3.4 µM
GI50 [47]: 2.42 µM
TGI [47]: 15.1 µM
GI50 [48]: 3.69 µM
TGI [48]: 72.6 µM
GI50 [49]: 2.92 µM
TGI [49]: 20.5 µM
GI50 [50]: 1.25 µM
TGI [50]: 5.15 µM
GI50 [51]: 1.15 µM
TGI [51]: 4.26 µM
GI50 [52]: 2.25 µM
TGI [52]: 9.09 µM
GI50 [53]: 3.48 µM
TGI [53]: 14.4 µM
GI50 [54]: 3.31 µM
TGI [54]: 19.7 µM
GI50 [55]: 1.52 µM
TGI [55]: 7.92 µM
